{"source": "patent US20220370642A1", "about": "“METHODS OF DETECTING NEUROLOGICAL DISORDERS VIA BINDING TO PHOSPHORYLATED TAU PROTEIN” (Amydis, Inc., priority 2019, published 2022)", "tested_on": "hyperphosphorylated 3RTau", "test": "Tau protein retinal staining: colocalization of Compound 5 with 3RTau antibody in retinal sections (confocal fluorescence)", "type": "binding, mice", "conditions": "for Pearson correlation coefficient (PCC) of colocalization with 3RTau antibody: Image J analysis, -1=complete anti-colocalization, 0=non colocalization, 1=complete colocalization", "experimental": "Retinas of different age of three-repeat tau (“3RTau”) mice (3 months, 6 months and 12 months) were mounted on slides. The retina were washed with PBS 2 times for 5 minutes. A solution of 98% formic acid was added—5 minutes for antigen retrieval. The sampled were washed with distilled water—2 times for 5 minutes. The samples were equilibrated in 1×PBS for 15 minutes, then blocked with 10% goat/donkey serum in 1×PBST (depending on antibodies) for 1 hour. The samples were then incubated with three-repeat tau antibody in 10% goat serum in 1×PBST at 4 degree C. overnight, then rinsed with 1×PBST 3 times for 5 minutes each. Samples were incubated with secondary antibody (Alexa Fluor 568 Anti mouse) in 1×PBST for 1 hour, then covered with foil, then rinsed with 1×PBST 3 times for 5 minutes each. Samples were stained with Compound 5 working solution for 30 minutes at room temperature, covered in foil, and washed with 1×PBS 3 times for 5 minutes each. Samples were stained with DAPI (300 nM or 100 ng/mL) in dark for 10 minutes, then tissues were washed 3×10 minutes with PBS. Antifade DAKO mounting medium was added, and coverslip and kept under foil until imaging. Images were obtained using a Leica confocal microscope.\nFluorescent imaging study was conducted on a Leica DMI 4000B microscope (Leica, Germany) equipped with a TCS SPE camera and Leica 10, 20 and 40× objectives. The following lasers were used to visualize fluorescent probes pertaining to DAPI (blue, nuclear stain), Compound 5 (green) and 3RTau (red): 408, 488 and 568 nm. Z-stacked images were taken at 40× at 0.5 μm increments to visualize the entire thickness of the tissue."}
{"smiles": "N#C/C(=C\\c1ccc2cc(N3CCCCC3)ccc2c1)C(=O)NCC(O)CO", "note": "(stereo not drawn) [Compound 5]", "values": [{"measurement": "Pearson correlation coefficient (PCC) of colocalization with 3RTau antibody", "setting": "3RTau mouse retinal section", "value": 0.67}, {"measurement": "colocalization with 3Rtau immunoreactivity in retina (immunostaining)", "setting": "3RTau transgenic mice retina, 3, 6 and 12 months", "value": "colocalizes"}, {"measurement": "Pearson correlation coefficient (PCC) of colocalization with 3RTau antibody", "setting": "control mouse retinal section", "value": 0.04}]}
